Data reported in patent publication US20200061215A1, “MALTOTRIOSE-BASED PROBES FOR FLUORESCENCE AND PHOTOACOUSTIC IMAGING OF BACTERIA” (The Board of Trustees of the Leland Stanford Junior …, priority 2018, published 2020).

What was measured:
[1] = test system: E. coli; assay: Bacteria competition assay with 3H-maltose; type: cell-based; settings: test compound 1 mM, 1 hr at 37° C., then 3H-maltose 30 min
Protocol: A competition binding assay between the synthesized derivatives and ^3H-maltose that is taken up in bacteria by the ABC transporter, was conducted.
Aliquots of 10^8 colony forming units (CFU) of E. coli were first incubated with test compounds (1 mM) for 1 hr at 37° C. After the first incubation, the bacteria culture was centrifuged at 10,000 rpm for 5 min and pellet washed with 1×HBSS three times. Pellets were suspended in a solution of ^3H-maltose (1 μCi in 200 μL HBSS (1×); American Radiolabeled Chemicals, Inc., USA) and incubated for 30 min at 37° C. Aliquots were centrifuged and washed with 1×HBSS three times before lysing in a bacterial lysis buffer (BugBuster, EMD, Billerica Mass. USA). Activity in bacteria lysates was then counted in a […] and protein concentration determined using a bicinchoninic acid (BCA) assay (Pierce, Thermo Fisher Scientific). Test compounds included maltose as a positive control, azide-1-maltotriose/maltohexose and Cy7-1-maltotriose/maltohexose. In addition, aliquots incubated with only ^3H-maltose were also included to assess normal uptake. Results are shown as counts per minute (cpm) normalized to protein content (μg of protein) per sample (n=3 per study).

[2] = Stability in PBS; type: physicochemical; settings: 37° C., up to 24 hr
Protocol: Compound 3a or 3b (100 μM) was incubated in either PBS (1×), murine, human, or rat plasma at 37° C. for up to 24 h. At each time point (0, 2, 4, 10 and 24 h), a 100 μL aliquot of the mixture was taken and added to an ice-cold acetonitrile solution (200 μL) and vortexed for 10 seconds. Samples were then centrifuged and the supernatant analyzed on the analytical HPLC column (HPLC method). […] Monitoring was at 750 nm and the area of any observed peak was assessed in each HPLC chromatogram. Bar plot representation of the compound stability is shown as % intact where

[3] = test system: S. aureus-infected wound; assay: Fluorescence and bioluminescence imaging in S. aureus wound-infection murine model; type: in vivo, mice; settings: treated group, vancomycin for 7 days
Protocol: Female CD1 or SKH1 elite mice, 6-8 weeks old were anesthetized by isoflurane inhalation (2-3%). A small wound on the upper or lower back of the mice was formed using a sharp pair of scissors. 10^8 CFU, 10^6 CFU, or 10^4 CFU Staphylococcus aureus in 20 μL saline was inoculated into a small pocket subcutaneously before sealing the wound with Vetbond adhesive (1469SB; 3M).
After subcutaneous inoculation of 10^8 CFU (n=5), 10^6 CFU (n=3) and 10^4 CFU (n=3) of S. aureus in the wound, Cy7-1-maltotriose (5 nmol in 2% DMSO/saline, 100 μL injection) was injected via the tail vein. To insure no other infections occur, a daily dose of kanamycin (800 mg/kg) was given to the mice intramuscularly. Fluorescence and bioluminescence images were then captured at 5 and 20 hr post injection of the probe. Image analysis was conducted using Living Image® software.
Fluorescence and Bioluminescence Imaging: After subcutaneous inoculation of 10^6 CFU (n=9) of kanamycin-resistant S. aureus in the wound, mice were administered kanamycin (800 mg/kg) intramuscularly once daily to insure no other bacterial infections occur. Two days after surgery, Cy7-1-maltotriose (10 nmol in 2% DMSO/saline, 200 μL injection) was injected via the tail vein and bioluminescence and fluorescence imaging were performed at 19, 45, 69, 93 and 144 hrs post injection. […]

[4] = Plasma stability, human plasma; type: in vitro ADME; settings: 37° C.
Protocol: Samples were then centrifuged and the supernatant analyzed on the analytical HPLC column (HPLC method). […] Monitoring was at 750 nm and the area of any observed peak was assessed in each HPLC chromatogram.

Compound: OC[C@H]1O[C@H](O[C@H]2[C@H](O)[C@@H](O)C(O)O[C@@H]2CO)[C@H](O)[C@@H](O)[C@@H]1O (mixture of isomers) [maltose]
- 3H-maltose uptake in E. coli when pre-incubated with test compound [1]: significant reduction

Compound: OC[C@H]1O[C@H](O[C@H]2[C@H](O)[C@@H](O)[C@@H](O[C@H]3[C@H](O)[C@@H](O)[C@@H](O[C@H]4[C@H](O)[C@@H](O)[C@@H](O[C@H]5[C@H](O)[C@@H](O)[C@@H](O[C@H]6[C@H](O)[C@@H](O)C(O)O[C@@H]6CO)O[C@@H]5CO)O[C@@H]4CO)O[C@@H]3CO)O[C@@H]2CO)[C@H](O)[C@@H](O)[C@@H]1O (stereo partly shown) [maltohexose]
- 3H-maltose uptake in E. coli when pre-incubated with test compound [1]: significant reduction
- stability in PBS [2]: stable

Compound: CN[C@H](CC(C)C)C(=O)N[C@H]1C(=O)N[C@@H](CC(N)=O)C(=O)N[C@H]2C(=O)N[C@H]3C(=O)N[C@H](C(=O)N[C@H](C(=O)O)c4cc(O)cc(O)c4-c4cc3ccc4O)[C@H](O)c3ccc(c(Cl)c3)Oc3cc2cc(c3O[C@@H]2O[C@H](CO)[C@@H](O)[C@H](O)[C@H]2O[C@H]2C[C@](C)(N)[C@H](O)[C@H](C)O2)Oc2ccc(cc2Cl)[C@H]1O [vancomycin]
- S. aureus infection in wound after treatment (FLI image, confirmed by BLI) [3]: complete disappearance of S. aureus infection

Compound: maltotriose
- 3H-maltose uptake in E. coli when pre-incubated with test compound [1]: significant reduction
- degradation in human plasma [4]: no degradation
- stability in PBS [2]: stable
